Measured values published in patent US10246453B2, “Benzenesulfonamide compounds and their use as therapeutic agents” (Xenon Pharmaceuticals Inc., priority 2016, dated 2019).
Where a name gives a salt, the structure may show the parent alone.

What was measured:
NaV1.6 [1] = molecular target: T1, NaV1.6 (Homo sapiens (Human), UniProt Q9UQD0); test: Electrophysiological Assay (EP), patch voltage clamp, NaV1.6; format: cell-based; settings: HEK-293 cells, whole-cell patch clamp, inactivated state; arithmetic mean
Text: Patch voltage clamp electrophysiology allows for the direct measurement and quantification of block of voltage-gated sodium channels (Nay's), and allows the determination of the time-and voltage-dependence of block which has been interpreted as differential binding to the resting, open, and inactivated states of the sodium channel (Hille, B., Journal of General Physiology (1977), 69: 497-515).
NaV1.1, NaV1.5 and NaV1.6 cDNAs (NM_001165964 (SCN1A), NM_000335 (SCN5A) and NM_014191 (SCN8A), respectively) were stably expressed in HEK-293 cells.
(§1) Sodium currents were measured using the patch clamp technique in the whole-cell configuration using either a PatchXpress automated voltage clamp or manually using an Axopatch 200B (Axon Instruments) or Model 2400 (A-M systems) amplifier.
The manual voltage clamp protocol was as follows: Borosilicate glass micropipettes were fire-polished to a tip diameter yielding a resistance of 2-4 Mohms in the working solutions. […] In some studies, the external sodium was reduced by equimolar replacement with choline. Osmolarity in the CsF internal and NaCl external solutions was adjusted to 300 mOsm/kg and 310 mOsm/kg with glucose, respectively. All recordings were performed at ambient temperature in a bath chamber with a volume of 150 μL. Control sodium currents were measured in 0.5% DMSO. Controls and representative compounds of the invention were applied to the recording chamber through a 4-pinch or 8-pinch valve bath perfusion system manufactured by ALA Scientific Instruments.
Currents were recorded at 40 kHz sampling frequency, filtered at […], and stored using a Digidata-1322A analogue/digital interface with the pClamp software (Axon Instruments). Series resistance compensation was applied (60-80%). […] All statistics in this study are given as mean±SD.
The membrane potential was maintained at a voltage where inactivation of the channel is complete. The voltage is then stepped back to a very negative (Vhold=−150 mV) voltage for 20 ms and then a test pulse is applied to quantify the compound block. The 20 ms brief repolarization was long enough for compound-free channels to completely recover from fast inactivation, but the compound-bound channels recovered more slowly such that negligible recovery could occur during this interval. The percent decrease in sodium current following wash-on of compound was taken as the percent block of sodium channels.

NaV1.1 [2] = molecular target: T2, NaV1.1 (Homo sapiens (Human), UniProt P35498); test: Electrophysiological Assay (EP), patch voltage clamp, NaV1.1; format: cell-based; settings: HEK-293 cells, whole-cell patch clamp, inactivated state; arithmetic mean
Protocol: as §1
In some studies, the external sodium was reduced by equimolar replacement with choline. […] All recordings were performed at ambient temperature in a bath chamber with a volume of 150 μL. Control sodium currents were measured in 0.5% DMSO. Controls and representative compounds of the invention were applied to the recording chamber through a 4-pinch or 8-pinch valve bath perfusion system manufactured by ALA Scientific Instruments.
Series resistance compensation was applied (60-80%). […] All statistics in this study are given as mean±SD.
The membrane potential was maintained at a voltage where inactivation of the channel is complete. The voltage is then stepped back to a very negative (Vhold=−150 mV) voltage for 20 ms and then a test pulse is applied to quantify the compound block. […] The percent decrease in sodium current following wash-on of compound was taken as the percent block of sodium channels.

NaV1.6 [3] = molecular target: T1, NaV1.6; test: Sodium Influx Assay (Flux), NaV1.6; settings: read-out: Flux NaV1.6 IC50; Trex HEK293 cells, ANG2 dye; arithmetic mean
NaV1.5 = NaV1.5 (Homo sapiens (Human), UniProt Q14524); test: Sodium Influx Assay (Flux), NaV1.5; settings: read-out: Flux NaV1.5 IC50; Trex HEK293 cells, ANG2 dye; arithmetic mean
NaV1.1 [4] = molecular target: T2, NaV1.1; test: Sodium Influx Assay (Flux), NaV1.1; format: cell-based; settings: Trex HEK293 cells, ANG2 dye; arithmetic mean

T1 sequence (Q9UQD0 whole entry): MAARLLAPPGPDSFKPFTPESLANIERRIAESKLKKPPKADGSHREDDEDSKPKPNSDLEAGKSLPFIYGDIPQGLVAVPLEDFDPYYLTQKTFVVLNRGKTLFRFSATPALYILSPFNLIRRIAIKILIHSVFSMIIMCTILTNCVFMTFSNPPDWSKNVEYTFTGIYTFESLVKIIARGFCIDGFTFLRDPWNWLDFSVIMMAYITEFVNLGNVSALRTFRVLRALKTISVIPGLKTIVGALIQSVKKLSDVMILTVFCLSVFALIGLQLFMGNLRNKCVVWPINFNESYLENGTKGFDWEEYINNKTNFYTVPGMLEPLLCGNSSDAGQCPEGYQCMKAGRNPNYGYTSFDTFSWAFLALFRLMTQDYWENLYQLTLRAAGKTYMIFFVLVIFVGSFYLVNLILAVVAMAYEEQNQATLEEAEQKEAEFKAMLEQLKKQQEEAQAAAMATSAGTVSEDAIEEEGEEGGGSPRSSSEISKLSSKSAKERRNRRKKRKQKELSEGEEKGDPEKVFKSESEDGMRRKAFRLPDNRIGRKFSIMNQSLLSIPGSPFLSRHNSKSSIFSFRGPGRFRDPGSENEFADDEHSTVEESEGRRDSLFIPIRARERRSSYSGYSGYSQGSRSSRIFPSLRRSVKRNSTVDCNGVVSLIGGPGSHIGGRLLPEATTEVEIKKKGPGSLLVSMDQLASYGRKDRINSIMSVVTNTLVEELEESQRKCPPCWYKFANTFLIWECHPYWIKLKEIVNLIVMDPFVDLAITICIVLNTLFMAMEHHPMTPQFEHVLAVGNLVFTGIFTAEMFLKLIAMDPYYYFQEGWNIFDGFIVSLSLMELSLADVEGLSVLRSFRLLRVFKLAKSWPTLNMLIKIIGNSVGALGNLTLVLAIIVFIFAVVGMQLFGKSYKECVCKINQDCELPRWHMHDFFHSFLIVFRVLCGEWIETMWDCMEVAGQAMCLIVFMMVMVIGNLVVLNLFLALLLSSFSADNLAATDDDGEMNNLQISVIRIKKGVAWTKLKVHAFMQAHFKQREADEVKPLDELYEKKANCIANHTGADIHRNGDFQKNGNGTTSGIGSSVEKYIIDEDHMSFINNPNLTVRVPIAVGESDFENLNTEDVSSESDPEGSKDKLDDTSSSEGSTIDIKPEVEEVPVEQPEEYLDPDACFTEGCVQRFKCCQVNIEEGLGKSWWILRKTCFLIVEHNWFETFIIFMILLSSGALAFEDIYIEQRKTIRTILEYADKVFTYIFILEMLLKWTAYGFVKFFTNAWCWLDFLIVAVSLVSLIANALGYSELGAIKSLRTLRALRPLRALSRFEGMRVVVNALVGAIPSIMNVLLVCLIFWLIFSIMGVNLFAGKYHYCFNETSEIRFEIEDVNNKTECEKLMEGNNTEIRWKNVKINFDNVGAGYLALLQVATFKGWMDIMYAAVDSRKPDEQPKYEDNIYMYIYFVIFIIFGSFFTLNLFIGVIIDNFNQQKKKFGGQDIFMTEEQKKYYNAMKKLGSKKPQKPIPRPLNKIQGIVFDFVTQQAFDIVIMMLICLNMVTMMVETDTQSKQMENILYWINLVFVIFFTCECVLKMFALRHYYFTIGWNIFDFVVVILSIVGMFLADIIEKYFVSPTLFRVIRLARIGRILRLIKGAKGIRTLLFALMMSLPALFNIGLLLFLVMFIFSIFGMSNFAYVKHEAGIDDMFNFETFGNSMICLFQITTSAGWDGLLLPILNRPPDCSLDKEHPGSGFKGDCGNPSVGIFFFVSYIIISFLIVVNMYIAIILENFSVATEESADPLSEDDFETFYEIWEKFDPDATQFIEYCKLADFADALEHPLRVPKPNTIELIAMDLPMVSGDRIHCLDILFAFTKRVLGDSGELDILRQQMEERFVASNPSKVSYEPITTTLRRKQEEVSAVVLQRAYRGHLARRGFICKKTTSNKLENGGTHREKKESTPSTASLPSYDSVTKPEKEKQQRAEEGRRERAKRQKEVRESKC
NaV1.5, sequence (Q14524 other isoform, or with tags, fused parts or gaps): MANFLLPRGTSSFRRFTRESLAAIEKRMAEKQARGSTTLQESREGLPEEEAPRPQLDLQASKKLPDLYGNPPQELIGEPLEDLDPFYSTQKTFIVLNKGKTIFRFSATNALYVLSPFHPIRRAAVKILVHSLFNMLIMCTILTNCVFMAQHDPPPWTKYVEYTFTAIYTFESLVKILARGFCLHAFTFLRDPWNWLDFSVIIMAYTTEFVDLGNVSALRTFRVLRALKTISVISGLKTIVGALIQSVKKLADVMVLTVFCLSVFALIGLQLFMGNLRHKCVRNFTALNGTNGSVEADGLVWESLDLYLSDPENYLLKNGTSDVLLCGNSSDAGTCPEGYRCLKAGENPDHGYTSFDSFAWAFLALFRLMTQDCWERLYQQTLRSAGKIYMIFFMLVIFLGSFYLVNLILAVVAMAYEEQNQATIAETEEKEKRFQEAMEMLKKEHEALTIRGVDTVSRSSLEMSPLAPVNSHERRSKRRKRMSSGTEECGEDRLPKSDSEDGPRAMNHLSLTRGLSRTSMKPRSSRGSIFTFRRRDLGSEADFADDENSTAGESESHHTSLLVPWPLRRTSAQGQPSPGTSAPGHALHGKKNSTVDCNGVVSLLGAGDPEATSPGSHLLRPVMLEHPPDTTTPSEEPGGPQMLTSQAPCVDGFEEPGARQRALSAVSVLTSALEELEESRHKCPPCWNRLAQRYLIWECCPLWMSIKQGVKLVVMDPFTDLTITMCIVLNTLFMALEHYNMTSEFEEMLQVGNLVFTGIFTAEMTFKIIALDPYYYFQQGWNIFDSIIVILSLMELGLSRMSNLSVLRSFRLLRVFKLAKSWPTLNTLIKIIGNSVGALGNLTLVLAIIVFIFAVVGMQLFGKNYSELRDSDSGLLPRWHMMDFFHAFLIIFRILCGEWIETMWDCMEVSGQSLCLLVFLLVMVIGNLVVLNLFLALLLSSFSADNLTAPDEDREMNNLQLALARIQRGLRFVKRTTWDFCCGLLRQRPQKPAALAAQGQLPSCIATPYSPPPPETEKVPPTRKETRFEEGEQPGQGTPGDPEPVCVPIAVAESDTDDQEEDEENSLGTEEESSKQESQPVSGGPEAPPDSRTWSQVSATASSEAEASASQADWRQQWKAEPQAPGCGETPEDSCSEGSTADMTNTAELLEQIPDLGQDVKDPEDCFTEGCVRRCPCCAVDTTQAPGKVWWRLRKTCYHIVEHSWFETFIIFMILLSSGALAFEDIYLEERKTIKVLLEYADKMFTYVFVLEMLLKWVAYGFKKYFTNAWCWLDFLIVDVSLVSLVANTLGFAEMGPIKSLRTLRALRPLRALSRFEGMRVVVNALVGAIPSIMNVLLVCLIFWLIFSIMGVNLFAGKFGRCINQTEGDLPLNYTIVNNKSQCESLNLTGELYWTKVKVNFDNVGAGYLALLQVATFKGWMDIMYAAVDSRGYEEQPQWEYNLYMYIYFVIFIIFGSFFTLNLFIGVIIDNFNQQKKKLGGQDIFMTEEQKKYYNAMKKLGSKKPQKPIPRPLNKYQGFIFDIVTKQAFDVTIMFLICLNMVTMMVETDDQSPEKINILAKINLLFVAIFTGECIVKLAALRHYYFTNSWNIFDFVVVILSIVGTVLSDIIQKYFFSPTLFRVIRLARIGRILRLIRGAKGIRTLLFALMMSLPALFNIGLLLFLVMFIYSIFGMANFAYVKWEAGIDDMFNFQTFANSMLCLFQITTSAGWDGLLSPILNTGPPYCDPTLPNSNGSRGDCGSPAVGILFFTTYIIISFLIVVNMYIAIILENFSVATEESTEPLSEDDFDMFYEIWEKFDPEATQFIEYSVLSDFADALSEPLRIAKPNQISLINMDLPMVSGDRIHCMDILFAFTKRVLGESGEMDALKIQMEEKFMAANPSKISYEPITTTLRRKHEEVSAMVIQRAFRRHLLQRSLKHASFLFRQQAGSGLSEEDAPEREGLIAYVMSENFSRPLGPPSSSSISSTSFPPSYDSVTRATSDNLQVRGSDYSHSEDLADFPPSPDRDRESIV

| SMILES | IC50 (NaV1.6 [1]) [µM] | IC50 (NaV1.1 [2]) [µM] | IC50 (NaV1.6 [3]) [µM] | IC50 (NaV1.5) [µM] | IC50 (NaV1.1 [4]) [µM] |
| --- | --- | --- | --- | --- | --- |
| C[C@H](c1ccccc1)N1CC[C@H](N(C)c2ccc(S(=O)(=O)Nc3cscn3)cc2Cl)C1 [Example 251, 3-chloro-4-(methyl((S)-1-((R)-1-phenylethyl)pyrrolidin-3-yl)amino)-N-(thiazol-4-yl)benzenesulfonamide 2,2,2-trifluoroacetate] | 0.412 | > 10 | 1.51 | 7.32 | 7.45 |
| CC[C@@H](c1ccccc1)N1CC[C@H](N(C)c2cc(F)c(S(=O)(=O)Nc3cscn3)cc2Cl)C1 [Example 242, 5-chloro-2-fluoro-4-(methyl((S)-1-((S)-1-phenylpropyl)pyrrolidin-3-yl)amino)-N-(thiazol-4-yl)benzenesulfonamide] | 0.668 | > 10 | 0.65 | 9.96 | 5.38 |
| CN(c1ccc(S(=O)(=O)Nc2ncns2)cc1Cl)[C@H]1CCN(Cc2cc(Cl)ccc2F)C1 [Example 33, (S)-3-chloro-4-((1-(5-chloro-2-fluorobenzyl)pyrrolidin-3-yl)(methyl)amino)-N-(1,2,4-thiadiazol-5-yl)benzenesulfonamide 2,2,2-trifluoroacetate] | 0.07 | > 10 | 0.041 | 7.79 | 5.11 |
| C[C@@H](c1ccccc1)N1CCC(Oc2ccc(S(=O)(=O)Nc3ncns3)cc2Cl)CC1 [Example 221, (S)-3-chloro-4-((1-(1-phenylethyl)piperidin-4-yl)oxy)-N-(1,2,4-thiadiazol-5-yl)benzenesulfonamide 2,2,2-trifluoroacetate] | 0.098 | > 10 | 0.127 | > 30 | 10.8 |
| CN(c1cc(F)c(S(=O)(=O)Nc2cscn2)cc1Cl)[C@H]1CCN([C@H]2CCc3ccccc32)C1 [Example 249, 5-chloro-4-(((S)-1-((S)-2,3-dihydro-1H-inden-1-yl)pyrrolidin-3-yl)(methyl)amino)-2-fluoro-N-(thiazol-4-yl)benzenesulfonamide 2,2,2-trifluoroacetate] | 0.11 | > 10 | 0.285 | 17.4 | 11.2 |
| CN(c1ccc(S(=O)(=O)Nc2ncns2)cc1Cl)[C@@H]1CCN(Cc2ccccc2)C1 [Example 68, (R)-4-((1-benzylpyrrolidin-3-yl)(methyl)amino)-3-chloro-N-(1,2,4-thiadiazol-5-yl)benzenesulfonamide 2,2,2-trifluoroacetate] | 2.92 | > 10 | 1.41 | > 30 | > 30 |
| Cc1c(N(C)[C@H]2CCN(Cc3ccccc3)C2)ccc(S(=O)(=O)Nc2cscn2)c1F [Example 321, (S)-4-((1-benzylpyrrolidin-3-yl)(methyl)amino)-2-fluoro-3-methyl-N-(thiazol-4-yl)benzenesulfonamide 2,2,2-trifluoroacetate] | 0.137 | > 10 | 0.354 | 21.4 | 12.3 |
| CN(c1cc(F)c(S(=O)(=O)Nc2cscn2)c(F)c1Cl)[C@H]1CCN(Cc2ccccc2)C1 [Example 102, (S)-4-((1-benzylpyrrolidin-3-yl)(methyl)amino)-3-chloro-2,6-difluoro-N-(thiazol-4-yl)benzenesulfonamide formate] | 0.152 | > 10 | 0.703 | > 30 | > 30 |
| O=S(=O)(Nc1nccs1)c1ccc(OC2CCN(Cc3cccc(C(F)F)c3)CC2)c(Cl)c1 [Example 11, 3-chloro-4-((1-(3-(difluoromethyl)benzyl)piperidin-4-yl)oxy)-N-(thiazol-2-yl)benzenesulfonamide] | 0.082 | 7.21 | 0.253 | 7.58 | 8.12 |
| O=S(=O)(Nc1nccs1)c1ccc(O[C@@H]2C[C@H]3CC[C@@H](C2)N3Cc2ccccc2)c(Cl)c1 [Example 16, 4-(((1R,3s,5S)-8-benzyl-8-azabicyclo[3.2.1]octan-3-yl)oxy)-3-chloro-N-(thiazol-2-yl)benzenesulfonamide] | 0.03 | > 10 | 0.429 | > 30 | 22.8 |
| O=S(=O)(Nc1ncns1)c1ccc(OC2CCN(Cc3ccccc3)CC2)c(Cl)c1 [Example 100, 4-(1-benzylpiperidin-4-yloxy)-3-chloro-N-(1,2,4-thiadiazol-5-yl)benzenesulfonamide 2,2,2-trifluoroacetate] | 0.164 | > 10 | 0.19 | > 30 | 30 |
| Cc1c(O[C@H]2CCN(Cc3ccccc3)C2)cc(F)c(S(=O)(=O)Nc2cscn2)c1F [Example 269, (S)-4-((1-benzylpyrrolidin-3-yl)oxy)-2,6-difluoro-3-methyl-N-(thiazol-4-yl)benzenesulfonamide hydrochloride] | 0.329 | > 10 | 0.647 | > 30 | > 30 |
| CN(c1ccc(S(=O)(=O)Nc2nccs2)cc1Cl)[C@H]1CCN(Cc2cccc(C(F)F)c2)C1 [Example 28, (S)-3-chloro-4-((1-(3-(difluoromethyl)benzyl)pyrrolidin-3-yl)(methyl)amino)-N-(thiazol-2-yl)benzenesulfonamide] | 0.036 | 4.21 | 0.221 | 5.73 | 3.23 |
| O=S(=O)(Nc1nccs1)c1cc(Cl)c(N[C@H]2CCN(Cc3ccccc3)C2)cc1F [Example 87, (S)-4-(1-benzylpyrrolidin-3-ylamino)-5-chloro-2-fluoro-N-(thiazol-2-yl)benzenesulfonamide] | 0.393 | 7.28 | 0.744 | 14.3 | 5.96 |
| O=S(=O)(Nc1nccs1)c1cc(Cl)c(N[C@@H]2CCN(Cc3ccccc3)C2)cc1F [Example 89, (R)-4-(1-benzylpyrrolidin-3-ylamino)-5-chloro-2-fluoro-N-(thiazol-2-yl)benzenesulfonamide] | 0.091 | 2.87 | 0.501 | 12 | 2.13 |
| Cc1c(N(C)[C@H]2CCN(Cc3ccccc3)C2)cc(F)c(S(=O)(=O)Nc2ccsn2)c1F [Example 279, (S)-4-((1-benzylpyrrolidin-3-yl)(methyl)amino)-2,6-difluoro-N-(isothiazol-3-yl)-3-methylbenzenesulfonamide 2,2,2-trifluoroacetate] | 0.011 | > 10 | 0.064 | > 30 | 21.2 |
| Cc1cccc(CN2CC[C@@H](Nc3cc(F)c(S(=O)(=O)Nc4nccs4)cc3Cl)C2)c1 [Example 88, (R)-5-chloro-2-fluoro-4-(1-(3-methylbenzyl)pyrrolidin-3-ylamino)-N-(thiazol-2-yl)benzenesulfonamide] | 0.039 | 1.25 | 0.381 | 5.91 | 1.59 |
| O=S(=O)(Nc1nccs1)c1ccc(N[C@@H]2CCN(Cc3ccccc3)C2)c(Cl)c1 [Example 79, (R)-4-(1-benzylpyrrolidin-3-ylamino)-3-chloro-N-(thiazol-2-yl)benzenesulfonamide] | 0.138 | > 10 | 0.57 | > 30 | 6.34 |
